# Experiments:
# Taq polymerase = target: T1, Taq polymerase (Thermus aquaticus, UniProt P19821); test: Inhibition of PCR by heparin and sucrose, SYBR Green quantitation of amplicon; format: biochemical; conditions: for concentration that inhibits PCR efficiency: final concentration in PCR reaction, 35 cycles
# T1 construct: purchased Applied Biosystems Inc
# Experimental: (§1) We discovered that heparin and sucrose inhibit reverse transcription (RT) and polymerase chain reaction (PCR). To determine the level of heparin or sucrose that inhibits these reactions, RT and PCR reactions were performed at varying heparin and sucrose concentrations. Each reaction mixture contained 25 μL 2× SYBR Green PCR Master Mix (Applied Biosystems Inc), 0.25 μL MultiScribe Reverse Transcriptase at 50U/μl (ABI), 0.4 μL RNase Inhibitor at 20U/μl (ABI), 25 nM forward primer, 25 nM reverse primer, 10 μl RNA template, and enough water to bring the final reaction volume to 50 μl. For the RT reactions, E coli RNase P RNA was used as the RNA template, and 1.25 μl of each primer from a stock solution of 1 μM was used, giving a final primer concentration of 25 nM. The RNase P primers were RNASEP-F19 (5′-[…]-3′, SEQ ID NO: 1) and RNASEP-R278 (5′-[…]-3′, SEQ ID NO: 2). All primers were purchased from Integrated DNA Technologies, Inc. The 2× SYBR Green Master Mix contains Taq polymerase, nucleotides, buffer, and magnesium. These reaction mixtures were assembled in a Micro Amp Optical 96 well reaction plate (ABI).
# PCR reactions were also performed in the presence of varying amounts of heparin and sucrose. The plasmid pJA2′, which contains the DNA copy of the E coli RNase P RNA, was used as the template in these PCR reactions to generate both experimental and standard curves. Thirty-five cycles of PCR were performed in which the reaction mixture was incubated at 95° C. for 15 seconds for denaturation and 60° C. for one minute for annealing and extension. The reaction mixtures in the 96 well plate were loaded in the Gene Amp 5700 Sequence Detection System (ABI). This machine quantitates the amount of PCR product made after each cycle. A standard curve is generated with each reaction and used to calculate the quantity of the PCR product or amplicon for each experimental reaction. For the “Raw Activity” column in Table 2 the units are ng of DNA.
# [1] = target: T2, MultiScribe Reverse Transcriptase (Moloney murine leukemia virus, UniProt P03355); test: Inhibition of reverse transcription (RT) by heparin and sucrose, 32P-labeled primer extension; format: biochemical
# T2 construct: MultiScribe Reverse Transcriptase; purchased ABI (Applied Biosystems Inc)
# Experimental: as §1
# To examine the reverse transcription efficiency in the presence of sucrose and heparin, the reverse primer specific for RNase P RNA was ^32P labeled, and used as the only source of reverse primer. The radiolabeled primer was extended using reverse transcription during an incubation at 48° C. for 30 minutes. The resultant DNA was isolated and separated on a 6% denaturing gel. After soaking and drying the gel, the ^32P labeled reverse transcription product was quantitated using the Cyclone Storage Phosphor System (Packard) and Optiquant Image Analysis Software (Packard). This software reports the intensity of a selected band on the gel in units called Digital Light Units (DLU). The number of DLUs is listed in the “Raw Activity” column in Table 1. The amounts of sucrose and heparin in the samples as well as the final concentration of sucrose (percent weight per volume, % w/v) and heparin in the RT reaction are also listed. The highest amount represents 30% sucrose (average of the amount in a typical sucrose gradient) and 1 mg/mL heparin (amount of heparin in a typical sucrose gradient fraction). The amount of reverse transcription activity (“% RT” column) is expressed as a percent of the activity in the presence of differing amounts of sucrose or heparin relative to the activity in the absence of these substances.
# [2] = sucrose 0.001 % w/v final in PCR reaction (0.04 % in sample)
# [3] = sucrose 0.004 % w/v final in PCR reaction (0.12 % in sample)
# [4] = sucrose 0.014 % w/v final in PCR reaction (0.37 % in sample)
# [5] = sucrose 0.044 % w/v final in PCR reaction (1.11 % in sample)
# [6] = sucrose 0.133 % w/v final in PCR reaction (3.33 % in sample)
# [7] = sucrose 0.4 % w/v final in PCR reaction (10 % in sample)
# [8] = sucrose 1.2 % w/v final in PCR reaction (30 % in sample)
# [9] = sucrose 0.001 % W/V final in RT reaction (0.04 % in sample)
# [10] = sucrose 0.004 % W/V final in RT reaction (0.12 % in sample)
# [11] = sucrose 0.014 % W/V final in RT reaction (0.37 % in sample)
# [12] = sucrose 0.044 % W/V final in RT reaction (1.11 % in sample)
# [13] = sucrose 0.133 % W/V final in RT reaction (3.33 % in sample)
# [14] = sucrose 0.4 % W/V final in RT reaction (10 % in sample)
# [15] = sucrose 1.2 % W/V final in RT reaction (30 % in sample)
# [16] = heparin 0.002 ng/μL final in PCR reaction (0.06 in sample)
# [17] = heparin 0.012 ng/μL final in PCR reaction (0.32 in sample)
# [18] = heparin 0.064 ng/μL final in PCR reaction (1.6 in sample)
# [19] = heparin 0.32 ng/μL final in PCR reaction (8 in sample)
# [20] = heparin 1.6 ng/μL final in PCR reaction (40 in sample)
# [21] = heparin 8 ng/μL final in PCR reaction (200 in sample)
# [22] = heparin 40 ng/μL final in PCR reaction (1000 in sample)
# [23] = heparin 0.002 ng/μL final in RT reaction (0.06 in sample)
# [24] = heparin 0.012 ng/μL final in RT reaction (0.32 in sample)
# [25] = heparin 0.064 ng/μL final in RT reaction (1.6 in sample)
# [26] = heparin 0.32 ng/μL final in RT reaction (8 in sample)
# [27] = heparin 1.6 ng/μL final in RT reaction (40 in sample)
# [28] = heparin 8 ng/μL final in RT reaction (200 in sample)
# [29] = heparin 40 ng/μL final in RT reaction (1000 in sample)
# T1 sequence (P19821 whole entry): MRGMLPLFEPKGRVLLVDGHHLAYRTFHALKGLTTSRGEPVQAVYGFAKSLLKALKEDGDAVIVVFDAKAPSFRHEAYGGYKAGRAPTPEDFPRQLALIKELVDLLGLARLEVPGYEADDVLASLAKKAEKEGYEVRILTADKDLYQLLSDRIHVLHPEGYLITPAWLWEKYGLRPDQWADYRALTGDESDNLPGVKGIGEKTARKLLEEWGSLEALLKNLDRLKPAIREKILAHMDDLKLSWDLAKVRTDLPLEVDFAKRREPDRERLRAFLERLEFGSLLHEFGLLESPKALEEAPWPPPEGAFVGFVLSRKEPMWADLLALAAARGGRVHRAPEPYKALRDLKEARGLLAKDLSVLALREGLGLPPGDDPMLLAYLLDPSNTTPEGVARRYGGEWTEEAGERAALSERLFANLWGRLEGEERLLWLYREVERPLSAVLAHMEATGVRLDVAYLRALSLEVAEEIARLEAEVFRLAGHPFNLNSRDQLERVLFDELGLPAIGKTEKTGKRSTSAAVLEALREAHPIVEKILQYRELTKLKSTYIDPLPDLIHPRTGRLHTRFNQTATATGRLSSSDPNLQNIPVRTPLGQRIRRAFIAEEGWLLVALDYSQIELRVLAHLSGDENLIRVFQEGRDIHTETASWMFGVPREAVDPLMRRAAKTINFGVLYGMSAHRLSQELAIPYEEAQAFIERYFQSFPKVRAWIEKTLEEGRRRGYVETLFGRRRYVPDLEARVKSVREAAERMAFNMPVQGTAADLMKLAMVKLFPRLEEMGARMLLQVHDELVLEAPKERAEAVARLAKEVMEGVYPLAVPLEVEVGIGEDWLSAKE
molecule,measurement,setting,value
"OC[C@H]1O[C@@](CO)(O[C@H]2O[C@H](CO)[C@@H](O)[C@H](O)[C@H]2O)[C@@H](O)[C@@H]1O [Sucrose, sucrose]",concentration that inhibits PCR efficiency,Taq polymerase,0.004 % w/v
same,% PCR,Taq polymerase; [2],102%
same,Raw Activity (quantity of PCR product),Taq polymerase; [2],10.2 ng of DNA
same,% PCR,Taq polymerase; [3],66.6%
same,Raw Activity (quantity of PCR product),Taq polymerase; [3],6.66 ng of DNA
same,% PCR,Taq polymerase; [4],67%
same,Raw Activity (quantity of PCR product),Taq polymerase; [4],6.7 ng of DNA
same,% PCR,Taq polymerase; [5],61%
same,Raw Activity (quantity of PCR product),Taq polymerase; [5],6.1 ng of DNA
same,% PCR,Taq polymerase; [6],65.7%
same,Raw Activity (quantity of PCR product),Taq polymerase; [6],6.57 ng of DNA
same,% PCR,Taq polymerase; [7],66.7%
same,Raw Activity (quantity of PCR product),Taq polymerase; [7],6.67 ng of DNA
same,% PCR,Taq polymerase; [8],72.6%
same,Raw Activity (quantity of PCR product),Taq polymerase; [8],7.26 ng of DNA
same,% RT (reverse transcription activity relative to activity in absence of substance),[1]; [9],133.445%
same,Raw Activity (RT product band intensity),[1]; [9],7.94 DLU
same,% RT (reverse transcription activity relative to activity in absence of substance),[1]; [10],158.487%
same,Raw Activity (RT product band intensity),[1]; [10],9.43 DLU
same,% RT (reverse transcription activity relative to activity in absence of substance),[1]; [11],171.933%
same,Raw Activity (RT product band intensity),[1]; [11],10.23 DLU
same,% RT (reverse transcription activity relative to activity in absence of substance),[1]; [12],159.832%
same,Raw Activity (RT product band intensity),[1]; [12],9.51 DLU
same,% RT (reverse transcription activity relative to activity in absence of substance),[1]; [13],155.798%
same,Raw Activity (RT product band intensity),[1]; [13],9.27 DLU
same,% RT (reverse transcription activity relative to activity in absence of substance),[1]; [14],119.328%
same,Raw Activity (RT product band intensity),[1]; [14],7.1 DLU
same,% RT (reverse transcription activity relative to activity in absence of substance),[1]; [15],96.1345%
same,Raw Activity (RT product band intensity),[1]; [15],5.72 DLU
same,effect on the efficiency of reverse transcription,"[1]; up to 1.2 % W/V sucrose final, 48° C. for 30 minutes",does not inhibit
heparin,concentration that inhibits PCR efficiency,Taq polymerase,0.012 ng/µL
same,% PCR,Taq polymerase; [16],107.69%
same,Raw Activity (quantity of PCR product),Taq polymerase; [16],0.002 11.2 ng of DNA
same,% PCR,Taq polymerase; [17],75.962%
same,Raw Activity (quantity of PCR product),Taq polymerase; [17],7.9 ng of DNA
same,% PCR,Taq polymerase; [18],29.808%
same,Raw Activity (quantity of PCR product),Taq polymerase; [18],3.1 ng of DNA
same,% PCR,Taq polymerase; [19],0%
same,Raw Activity (quantity of PCR product),Taq polymerase; [19],0 ng of DNA
same,% PCR,Taq polymerase; [20],0%
same,Raw Activity (quantity of PCR product),Taq polymerase; [20],0 ng of DNA
same,% PCR,Taq polymerase; [21],0%
same,Raw Activity (quantity of PCR product),Taq polymerase; [21],0 ng of DNA
same,% PCR,Taq polymerase; [22],0%
same,Raw Activity (quantity of PCR product),Taq polymerase; [22],0 ng of DNA
same,concentration that significantly inhibits reverse transcription efficiency,[1]; final concentration in RT reaction,≥ 0.32 ng/µL
same,% RT (reverse transcription activity relative to activity in absence of substance),[1]; [23],108.01%
same,Raw Activity (RT product band intensity),[1]; [23],10.79 DLU
same,% RT (reverse transcription activity relative to activity in absence of substance),[1]; [24],101.8%
same,Raw Activity (RT product band intensity),[1]; [24],10.17 DLU
same,% RT (reverse transcription activity relative to activity in absence of substance),[1]; [25],93.293%
same,Raw Activity (RT product band intensity),[1]; [25],9.32 DLU
same,% RT (reverse transcription activity relative to activity in absence of substance),[1]; [26],72.573%
same,Raw Activity (RT product band intensity),[1]; [26],7.25 DLU
same,% RT (reverse transcription activity relative to activity in absence of substance),[1]; [27],3.6036%
same,Raw Activity (RT product band intensity),[1]; [27],0.36 DLU
same,% RT (reverse transcription activity relative to activity in absence of substance),[1]; [28],0.6006%
same,Raw Activity (RT product band intensity),[1]; [28],0.06 DLU
same,% RT (reverse transcription activity relative to activity in absence of substance),[1]; [29],0.8008%
same,Raw Activity (RT product band intensity),[1]; [29],0.08 DLU
